The record followed here is patent US20240116923A1, “USE OF INDOLE, 6- AND 7-AZAINDOLE DERIVATIVES AS INHIBITORS OF FERROPTOSIS REGULATED CELL DEATH” (Seabelife, priority 2021, published 2024).

Assay [1] has as its system mouse hippocampal neuronal cell line HT22. As to the kind of experiment: Neurotoxicity and excitotoxicity assay, HT22 cells + glutamate, erastin or RSL3, MTS cell viability. Type of assay: cell-based. The settings on record: Mus musculus. On the procedure: The excitotoxicity model used was the mouse hippocampal neuronal HT22 cells treated with glutamate [Dixon et al., Cell, 2012, 149(5), 1060-1072]. Ferroptosis and oxidative stress are both associated in this glutamate-induced cell death [Chu et al., Neural Regen. Res., 2020, 15(3), 528-536]. Phenotypic screening was also carried out with additional cell death inducers, erastin and RSL3 ((1S,3R)-Ras-selective lethal), in HT22 and SH-SY5Y (human neuroblastoma cells). Erastin and RSL3 are well described molecules, used as chemical tools for the study of ferroptosis regulation and neuronal pathologies [Lewerenz et al., Front. Neurosci., 2018, 12: 214; Reichert et al., Int. J. Mol. Sci., 2020, 21, 8765].
Mouse hippocampal neuronal cell line (HT22, ATCC) and human neuroblastoma cell line (SH-SY5Y, ATCC) were grown in Dulbecco's Modified Eagle Medium (DMEM, Gibco) supplemented with 10% fetal bovine serum (FBS, Gibco) at 37° C. under 5% CO2 atmosphere. Neurotoxicity was induced by erastin or RSL3 and excitotoxicity was induced by glutamate. Cells were seeded in 96-well plates at 5,000 and 10,000 cells/well for HT22 and SH-SY5Y cell lines, respectively. Cells were treated with 0.5-1 μM Erastin (HT22 cells) or 10 μM Erastin (SH-SY5Y cells) or 5-10 mM glutamate (HT22 cells) or 0.5 μM RSL3 (HT22 cells) or 5 μM RSL3 (SH-SY5Y cells) for 24 h in presence of increasing concentrations of inhibitors. Cells treated with DMSO only were used as controls. Cell viability was assessed by MTS assay (CellTiter 96 AQueous One Solution Cell Proliferation assay, Promega).
In FIGS. 1, 2A and 2B, an inhibitor was added to HT22 (FIG. 1: compound 6) or SH-SY5Y (FIG. 2A: compound 6; FIG. 2B: compound 25) cells in the presence or not of cell death inducers (erastin, glutamate or RSL3). […] EC50 values for compounds 1-28 were calculated from dose-response curves using Graphpad Prism software.

In assay [2] the test system is Rat dopaminergic neurons. As to the kind of experiment: Protective effect after 6-OHDA injury on rat primary dopaminergic neurons survival (TH staining). Type of assay: cell-based. The settings on record: for cellular death of dopaminergic neurons after 6-OHDA injury: 1 h before and during 2 days of 6-OHDA 20 μM (alone 48%), p<0.001; for rescue of dopaminergic neurons from cell death after 6-OHDA injury: at every concentration tested of 10 μM, 1 μM and 0.1 μM. As to the method: As explained in Ding et al., J Neurochem., 2004, (89), administration of 6-Hydroxydopamine (6-OHDA), a neurotoxin, has been widely used to cause the selective degeneration of dopamine (DA) neurons in in vitro and in vivo models. These models are used as Parkinson's disease models, which is characterized by the progressive loss of DA neurons of the substantia nigra.
Rat dopaminergic neurons were cultured as described by Schinelli et al., J Neurochem., 1988, 50(6). The cells were seeded at a density of 40 000 cells/well in 96 well-plates (precoated with poly-D-lysine; Greiner, Ref: 655940, Batch: E20093UL) and were cultured at 37° C. in a humidified air (95%)/CO2 (5%) atmosphere. Half of the medium was changed every 2 days with fresh medium. In these conditions, after 5 days of culture, astrocytes are present in the culture and release growth factor allowing neurons differentiation. In this condition, 2 to 5% of neurons are dopaminergic neurons.
6-OHDA (Sigma, Ref: 162957, Batch MKCK5243) was reconstituted in define culture medium at 40 μM (stock solution). The control medium was prepared in the same conditions. After 7 days of culture, primary mesencephalic neurons were pre-treated for 1 hour with test compounds or reference compound (BDNF, 50 ng/mL) and then intoxicated with 6-OHDA at a final concentration of 20 μM for 2 days incubation in order to induce a neuronal cell death of about 50%+/−5%.
After 2 days of intoxication in presence or absence of test compounds, cells were fixed by a solution of 4% paraformaldehyde (Sigma, ref 6148, Batch: SZBE2390V) for 20 min at room temperature, the control conditions were fixed as well following the same procedure. The cells were then permeabilized and nonspecific sites were blocked with a solution of phosphate buffered saline (PBS; PanBiotech; ref: P04-36500, Batch: 7701020) containing 0.1% of saponin (Sigma; ref: S7900, Batch: BCBL8667V) and 1% FCS for 15 min at room temperature. Cells were incubated with a mouse monoclonal anti-Tyrosine Hydroxylase (TH, 1/10 000, Sigma; ref: T1299, Batch: 014M4835) antibody in a solution of PBS overnight at 4° C. Antibody against TH stained dopaminergic neurons. […] Nuclei of cells were labelled by a fluorescent marker (Hoechst, Sigma; ref: B1155, Batch: 046M4048V) in the same solution. For each condition, 20 pictures per well were taken using InCell Analyzer™ 2200 (GE Healthcare) with 20× magnification. Images of each culture well were taken in same condition. Analysis of cell bodies of TH positive neurons was performed using Developer software (GE healthcare). A total of 6 data per experimental condition were provided.

Setting [3] is: 10 μM (first value of 'respectively').

Like-named read-outs stand apart in the source and are kept apart here.

By EC50 is commonly meant the concentration that produces a half-maximal response.

With `Oc1ccc(-c2cc3cccnc3[nH]2)cc1` [Compound 7, 4-(1H-pyrrolo[2,3-b]pyridin-2-yl)phenol], the EC50 in assay [1] (HT-22, HT22 cells, 0.5 μM RSL3, 24 h, MTS, read-out: EC50 HT22 RSL3) was 14.6 µM; in assay [1] (HT-22, HT22 cells, 0.5-1 μM Erastin, 24 h, MTS, read-out: EC50 HT22 Erastin), > 25 µM; in assay [1] (HT-22, HT22 cells, 5-10 mM glutamate, 24 h, MTS, read-out: EC50 HT22 Glutamate), > 25 µM. Besides, the “cellular death of dopaminergic neurons after 6-OHDA injury” value in assay [2] (1 μM (second value of 'respectively')) was 24%; in assay [2] (setting [3]), 16%. Moreover, the “rescue of dopaminergic neurons from cell death after 6-OHDA injury” value in assay [2] was “partially and significantly rescue”.

In the case of `Oc1ccc(-c2cc3ccccc3[nH]2)cc1` [Compound 1, 4-(1H-indol-2-yl)phenol], the EC50 in assay [1] (HT-22, 24 h, read-out: EC50 HT22 Erastin) worked out at 2.9 µM; in assay [1] (HT-22, 24 h, read-out: EC50 HT22 Glutamate), 2.55 µM; in assay [1] (HT-22, 24 h, read-out: EC50 HT22 RSL3), 3.27 µM. The “cellular death of dopaminergic neurons after 6-OHDA injury” value in assay [2] (setting [3]) worked out at 25%. The “rescue of dopaminergic neurons from cell death after 6-OHDA injury” value in assay [2] is “partially and significantly rescue”.
